One compound from patent US20150104392A1, “COMPOSITIONS, BIOMARKERS AND THEIR USE IN THE TREATMENT OF CANCER” (Aptose Biosciences Inc., priority 2013, published 2015) can be followed below.

SMILES strings stand for the structures.

Data set [1] relates to advanced or metastatic solid tumours. Briefly: Open-label phase 1 study in patients with advanced or metastatic solid tumours. Format: in vivo, human. On the procedure: Phase I: This was an open-label, phase 1 study to determine the maximum tolerated dose (MTD) or appropriate target dose if MTD not reached to identify the recommended phase 2 dose of LOR-253HCl in patients with advanced or metastatic solid tumours. In the first set of doses, LOR-253HCl was given in ascending doses until the maximum administered dose or appropriate target dose is reached. In the other set of doses, LOR-253HCl was given in ascending doses starting from 20 mg/m^2 until the maximum administered dose or appropriate target dose is reached. Patient as treated on LOR-253HCl for 2 cycles for the evaluation. • Other Name: No other names are used. • Study Type: Interventional • Study Design: Endpoint Classification: Safety Study • Intervention Model: Single Group Assignment • Masking: Open Label • Primary Purpose: Treatment • Official Title: Open-Label, Phase 1 Study of LOR-253HCl in Patients With Advanced or Metastatic Solid Tumours
• To determine the maximum tolerated dose (MTD) or appropriate target dose if MTD not reached to identify the recommended phase 2 dose of LOR-253HCl in patients with advanced or metastatic solid tumours. [Time Frame: 8 weeks]
• To characterize the safety profile of LOR-253HCl when administered to patients with advanced or metastatic solid tumours. [Time Frame: 8 weeks]
• 1. Male or female 18 years of age or older. • 2. Histologically confirmed diagnosis of solid tumor for which no effective therapy is available or that is unresponsive to conventional therapy. • 3. Meet laboratory parameter requirements at study entry.
• 1. Chemotherapy, radiotherapy, biologic therapy, immunotherapy or any other investigational drugs within 21 days of beginning study treatment with LOR-253HCl. • 2. A hematologic malignancy. • 3. A history of brain or other central nervous system metastases. • 4. Have a presence of a significant infection. • 5. Clinically significant autoimmune disease. • 6. Uncontrolled intercurrent illness. • 7. With iron or copper overload syndromes. • 8. Pregnancy or breast feeding.

A further data set relates to HL-60 xenograft. Kind of data set: HL-60 AML xenograft model. In kind it is in vivo, athymic nude mice. The conditions noted are these: 3 cycles. On the procedure: The human AML cell line HL-60 was implanted subcutaneously into athymic nude mice. Tumor-bearing mice were treated with LOR-253HCl alone or in combination with azacitidine, with azacitidine alone, or with a negative control vehicle. The detailed treatment conditions are as follows. • Group 1: Negative control group. LOR-253HCl control vehicle, 2×/day, 3 cycles of 2 consecutive days, 5 days between cycles, i.v., plus 1% D-mannitol every four days by s.c. injection • Group 2: Azacitidine (in 1% D-mannitol) at 10 mg/kg 1× on days 1, 4, 8, 11, 15 and 18 by subcutaneous (s.c.) injection • Group 3: LOR-253HCl at 15 mg/kg bid for 3 cycles, each cycle is 2 consecutive days of dosing per week with 5 days of non-dosing, i.v., n=9 (2T-5B) • Group 4: LOR-253HCl at 15 mg/kg 2×/day (bid) for 3 cycles, each cycle is 1 day of dosing per week with 6 days of non-dosing, i.v., n=9 (1T-6B) • Group 5: Combination of LOR-253 (2T-5B) and azacitidine. LOR-253HCl at 15 mg/kg bid for 3 cycles, each cycle is 2 consecutive days of dosing per week with 5 days of non-dosing, i.v., n=9 (2T-5B) plus azacitidine at 10 mg/kg 1× every four days by s.c. injection • Group 6: Combination of LOR-253 (1T-6B) and azacitidine. […]
Tumor sizes were measured three times per week.

The test system of a further data set is Kasumi-1 xenograft. Kind of data set: Kasumi-1 AML xenograft model. In kind it is in vivo. To be noted: 30 mg/kg (15 mg/kg twice per day) i.v., two consecutive days per week, four weeks. On the procedure: The anti-tumor activity of LOR-253HCl was evaluated in another in vivo animal model of human AML. The human AML cell line Kasumi-1 was implanted subcutaneously into athymic nude mice. Some tumor-bearing mice were treated with LOR-253HCl at 30 mg/kg (15 mg/kg twice per day) for two consecutive days per week for four weeks (the “LOR-253 treatment group”). LOR-253 was administered by intravenous (i.v.) bolus injection as the hydrochloric salt form (LOR-253-HCl) formulated in 20% Polyethylene Glycol 400, 10% Propylene Glycol, and 10% Solutol HS in 60% water.
The major endpoint was to observe for tumor growth inhibition after treatment with LOR-253HCl and compare the anti-tumor effects of different dosing schedules. Tumor sizes were measured three times per week from day 10 after the tumor cell inoculation. Tumors were measured in three dimensions using calipers and the volume was expressed in millimeters cubed using the formula: V=0.5 a×b×c, where a, b, and c are the length, width, and height of the tumor, respectively. Mean tumor volumes+/−standard error (SE) were calculated from each measurement and then plotted in a standard graph to compare the anti-tumor efficacy of drug treatment to that of control (FIG. 20). Toxicity was assessed by clinical observations and by measurement of mouse body weight in grams twice per week over the course of the study. Mean body weights were calculated from each measurement and then plotted to compare body weight changes in the drug treatment group to that of control (FIG. 21).

The test system of a further data set is KG-1 xenograft. Kind of data set: KG-1 AML xenograft model. In kind it is in vivo, mice. The conditions noted are these: 15 mg/kg iv, bid, 2T/wk; single agent. The method, then: The anti-tumor activity of LOR-253HCl was evaluated in yet another in vivo animal model of human AML. Xenograft model mice for AML cell line KG-1 was generated with the same method as in Examples 9 and 10, and were treated with LOR-253HCl or control according to the following regime.
LOR-253-15 mg/kg-iv, bid, 2T/wk-Day 1

The subject of another data set is THP-1 xenograft. Briefly: THP-1 AML xenograft model. To be noted: Group 2: single agent, i.v. Days 1, 2, 8, 9, 15, 16; IP Days 22-25, 29, 30. In kind it is in vivo, mice. The method, then:
The anti-tumor activity of LOR-253HCl, as a single agent and in combination with azacitidine, was evaluated in yet another in vivo animal model of human AML. Xenograft model mice for AML cell line THP-1 was generated with the same method as in Examples 9 and 10, and were treated with LOR-253HCl alone or in combination with azacitidine, with azacitidine alone, or with a negative control vehicle, and tumor sizes were measured as described in Examples 9 and 10. The detailed treatment conditions are shown as follows, and the results are shown in FIG. 26. • Group 1 Control: received i.v. treatments with LOR-253 control vehicle (CV) on Days 1, 2, 8, 9, 15 &16; received subcutaneous (SC) treatments with Azacitidine control vehicle on Days 1, 4, 8, 11, 15, 18, 22, 25, 29 &32; and received intraperitoneal (IP) treatments with LOR-253-CV on Days 22, 23, 24, 25, 29&30. • Group-2-LOR-253: received i.v. treatments on Days 1, 2, 8, 9, 15 &16; received IP treatments on Days 22, 23, 24, 25, 29&30 • Group-3-Azacitidine: received SC treatments on Days 1, 4, 8, 11, 15, 18, 22, 25, 29 &32. • Group-4-Combination: received i.v. treatments with LOR-253 on Days 1, 2, 8, 9, 15 &16; received IP treatments with LOR-253 on Days 22, 23, 24 &25; and received SC-treatment with Azacitidine on Days 1, 4, 8, 11, 15, 18, 22 &25

Data set [2] is described as follows: Pharmacokinetics, serum level after i.v. bolus. Format: in vivo. The conditions noted are these: CD-1 nude mice; i.v. bolus 1, 5 and 15 mg/kg. The method, then:
To study the pharmacokinetic (PK) […], CD-1 nude mice were treated by i.v. bolus injections of LOR-253HCl at 1, 5, and 15 mg/kg. The serum level of LOR-253 was measured.

For the compound `Cc1[nH]c2ccc(F)cc2c1-c1nc2c3cccnc3c3ncccc3c2[nH]1` [LOR-253HCl], the “Most common AE and SAE” value in data set [1] (N=27 patients, 7 dose levels) was “Fatigue and 1 case of reversible hypophosphatemia”. The Safety profile result in data set [1] (N=27 patients, 7 dose levels) is given as “Excellent Safety Profile”. The “tumor response in individual patient (FIG. 12)” value in data set [1] (patient with NSCLC (poorly differentiated adenocarcinoma), extensive metastases, refractory) is recorded as “Tumor shrinkage”. In data set [1] (patients with advanced solid tumors), the RECIST partial response result is “No RECIST PR”. Further, the “Stable Disease, evaluable patients” value in data set [1] (patients with advanced solid tumors, dose-escalating, 7 dose levels) came out at 41%. Further, the tumor growth inhibition result in the data set on HL-60 xenograft (Group 3: 15 mg/kg bid i.v., two consecutive days per week (2T-5B)) is reported as “inhibited growth of HL-60 tumors to approximately the same extent as or slightly more than azacitidine alone”; in the data set on HL-60 xenograft (Group 4: 15 mg/kg bid i.v., one day per week (1T-6B)), “inhibited growth of HL-60 tumors to approximately the same extent as or slightly more than azacitidine alone”; with KG-1 xenograft it was “significant tumor growth inhibition”; with THP-1 xenograft, “inhibited growth of THP-1 tumors to about the same extent as or slightly more than azacitidine alone”. Besides, the body weight entry with Kasumi-1 xenograft is “did not show body weight loss”. Further, the “overt signs of toxicity” value in the data set on Kasumi-1 xenograft is “did not show other overt signs of toxicity”. In the data set with Kasumi-1 xenograft (p=0.028 Student's t-test), the “tumor growth inhibition vs vehicle control” value is “statistically significantly increased inhibitory effect”. The “serum level of LOR-253” value in data set [2] is listed as “dose related increase”.
